# Results: PMC7265341, “Quantifying CDK inhibitor selectivity in live cells” (Nature Communications, 2020)
# Like-named read-outs stand apart in the source and are kept apart here.
# Legend:
# CDK2/Cyclin E1 = CDK2/Cyclin E1 (Homo sapiens, UniProt P24941); experiment: NanoBRET live-cell target engagement, CDK2-NanoLuc/Cyclin E1 in HEK-293; assay type: binding; conditions: CDK2/E1
# CDK20/Cyclin H = CDK20/Cyclin H (Homo sapiens, UniProt Q8IZL9); experiment: NanoBRET live-cell target engagement, NanoLuc-CDK20/Cyclin H in HEK-293; assay type: binding; conditions: for IC50: read-out: Cheng-Prusoff IC50 Replot: IC50; for inhibition at 10 µM: read-out: CDK20/H Inhibition at 10µM (%), 10µM
# Sequence of CDK20/Cyclin H (Q8IZL9 whole entry): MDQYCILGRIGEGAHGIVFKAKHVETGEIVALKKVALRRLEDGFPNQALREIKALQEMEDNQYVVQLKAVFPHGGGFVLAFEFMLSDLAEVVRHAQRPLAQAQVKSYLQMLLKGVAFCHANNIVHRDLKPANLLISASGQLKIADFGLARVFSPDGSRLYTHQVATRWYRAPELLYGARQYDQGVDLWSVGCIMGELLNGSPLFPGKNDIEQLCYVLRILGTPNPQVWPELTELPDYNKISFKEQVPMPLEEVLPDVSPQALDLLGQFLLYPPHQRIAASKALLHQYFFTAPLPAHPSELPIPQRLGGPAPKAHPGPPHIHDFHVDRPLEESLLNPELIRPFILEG
# Sequence of CDK20/Cyclin H (P51946 whole entry partner): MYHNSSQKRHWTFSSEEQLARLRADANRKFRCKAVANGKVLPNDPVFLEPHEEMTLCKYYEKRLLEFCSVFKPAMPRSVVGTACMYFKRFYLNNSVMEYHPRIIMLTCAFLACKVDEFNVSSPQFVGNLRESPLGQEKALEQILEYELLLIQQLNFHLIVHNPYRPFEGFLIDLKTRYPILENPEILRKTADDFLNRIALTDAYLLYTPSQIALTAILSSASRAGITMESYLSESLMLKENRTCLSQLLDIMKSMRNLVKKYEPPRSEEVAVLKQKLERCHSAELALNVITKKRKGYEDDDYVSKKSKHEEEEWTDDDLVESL
# CDK11A/Cyclin L2 = target: T1, CDK11A/Cyclin L2 (Homo sapiens, UniProt Q9UQ88); experiment: NanoBRET live-cell target engagement, CDK11A-NanoLuc/Cyclin L2 in HEK-293; assay type: binding; conditions: read-out: CDK11a/L2 Inhibition at 10µM (%), 10µM
# T1 sequence (Q9UQ88 1-783): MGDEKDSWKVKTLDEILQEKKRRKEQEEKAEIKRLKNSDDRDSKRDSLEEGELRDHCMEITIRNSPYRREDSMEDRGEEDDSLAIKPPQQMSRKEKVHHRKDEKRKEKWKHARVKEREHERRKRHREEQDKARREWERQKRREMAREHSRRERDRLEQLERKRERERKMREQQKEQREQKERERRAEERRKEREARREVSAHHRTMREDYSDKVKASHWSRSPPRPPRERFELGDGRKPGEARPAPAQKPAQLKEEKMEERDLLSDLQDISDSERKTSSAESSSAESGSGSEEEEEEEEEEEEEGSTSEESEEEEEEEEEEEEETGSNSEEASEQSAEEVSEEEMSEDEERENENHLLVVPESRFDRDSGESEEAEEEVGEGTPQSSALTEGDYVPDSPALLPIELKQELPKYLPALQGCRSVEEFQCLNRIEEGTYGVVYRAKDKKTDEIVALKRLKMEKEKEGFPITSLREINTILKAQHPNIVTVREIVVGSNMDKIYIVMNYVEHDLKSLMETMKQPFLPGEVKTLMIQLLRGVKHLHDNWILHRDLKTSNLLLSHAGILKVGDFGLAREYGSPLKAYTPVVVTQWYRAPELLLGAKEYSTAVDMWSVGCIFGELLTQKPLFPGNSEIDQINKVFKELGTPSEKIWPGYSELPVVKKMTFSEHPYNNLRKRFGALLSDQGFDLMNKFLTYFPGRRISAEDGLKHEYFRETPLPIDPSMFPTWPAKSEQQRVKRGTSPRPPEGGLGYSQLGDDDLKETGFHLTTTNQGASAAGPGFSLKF
# CDK12/Cyclin K = CDK12/Cyclin K (Homo sapiens, UniProt Q9NYV4); experiment: NanoBRET live-cell target engagement, CDK12-NanoLuc/Cyclin K in HEK-293; assay type: binding; conditions: read-out: CDK12/K Inhibition at 10µM (%), 10µM
# CDK10/Cyclin L2 = CDK10/Cyclin L2 (Homo sapiens, UniProt Q15131); experiment: NanoBRET live-cell target engagement, CDK10-NanoLuc/Cyclin L2 in HEK-293; conditions: read-out: CDK10/L2 Inhibition at 10µM (%), 10µM
# Sequence of CDK10/Cyclin L2 (Q15131 whole entry): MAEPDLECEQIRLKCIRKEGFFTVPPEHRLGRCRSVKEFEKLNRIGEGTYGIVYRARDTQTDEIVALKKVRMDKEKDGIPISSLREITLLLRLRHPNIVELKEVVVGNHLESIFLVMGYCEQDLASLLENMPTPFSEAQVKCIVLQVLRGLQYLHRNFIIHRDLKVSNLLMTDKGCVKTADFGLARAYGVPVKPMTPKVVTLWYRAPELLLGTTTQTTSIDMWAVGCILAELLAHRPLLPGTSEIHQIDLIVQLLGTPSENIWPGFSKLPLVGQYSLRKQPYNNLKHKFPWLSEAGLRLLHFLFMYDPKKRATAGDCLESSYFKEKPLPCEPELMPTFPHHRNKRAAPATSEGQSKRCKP
# CDK11B/Cyclin L2 = CDK11B/Cyclin L2 (Homo sapiens, UniProt P21127); experiment: NanoBRET live-cell target engagement, CDK11B-NanoLuc/Cyclin L2 in HEK-293; assay type: binding; conditions: read-out: CDK11b/L2 Inhibition at 10µM (%), 10µM
# CDK13/Cyclin K = CDK13/Cyclin K (Homo sapiens, UniProt Q14004); experiment: NanoBRET live-cell target engagement, CDK13-NanoLuc/Cyclin K in HEK-293; assay type: binding; conditions: read-out: CDK13/K Inhibition at 10µM (%), 10µM
# Sequence of CDK13/Cyclin K (O75909 whole entry): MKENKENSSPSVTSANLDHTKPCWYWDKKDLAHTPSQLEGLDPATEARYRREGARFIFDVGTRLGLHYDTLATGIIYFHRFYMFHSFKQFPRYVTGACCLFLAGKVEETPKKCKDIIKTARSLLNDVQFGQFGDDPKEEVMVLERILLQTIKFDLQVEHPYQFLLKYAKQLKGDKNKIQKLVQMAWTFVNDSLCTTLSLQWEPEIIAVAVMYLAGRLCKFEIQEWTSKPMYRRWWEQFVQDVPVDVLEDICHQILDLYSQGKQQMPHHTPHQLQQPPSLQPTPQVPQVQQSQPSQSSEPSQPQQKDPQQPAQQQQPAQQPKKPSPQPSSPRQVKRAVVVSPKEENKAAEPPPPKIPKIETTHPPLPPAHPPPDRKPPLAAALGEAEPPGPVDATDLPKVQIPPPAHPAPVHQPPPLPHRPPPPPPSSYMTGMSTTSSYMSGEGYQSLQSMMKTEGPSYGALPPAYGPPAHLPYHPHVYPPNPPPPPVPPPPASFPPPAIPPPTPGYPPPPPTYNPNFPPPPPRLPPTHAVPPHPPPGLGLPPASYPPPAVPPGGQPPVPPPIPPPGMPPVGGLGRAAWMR
# Sequence of CDK13/Cyclin K (Q14004 other isoform, or with tags, fused parts or gaps): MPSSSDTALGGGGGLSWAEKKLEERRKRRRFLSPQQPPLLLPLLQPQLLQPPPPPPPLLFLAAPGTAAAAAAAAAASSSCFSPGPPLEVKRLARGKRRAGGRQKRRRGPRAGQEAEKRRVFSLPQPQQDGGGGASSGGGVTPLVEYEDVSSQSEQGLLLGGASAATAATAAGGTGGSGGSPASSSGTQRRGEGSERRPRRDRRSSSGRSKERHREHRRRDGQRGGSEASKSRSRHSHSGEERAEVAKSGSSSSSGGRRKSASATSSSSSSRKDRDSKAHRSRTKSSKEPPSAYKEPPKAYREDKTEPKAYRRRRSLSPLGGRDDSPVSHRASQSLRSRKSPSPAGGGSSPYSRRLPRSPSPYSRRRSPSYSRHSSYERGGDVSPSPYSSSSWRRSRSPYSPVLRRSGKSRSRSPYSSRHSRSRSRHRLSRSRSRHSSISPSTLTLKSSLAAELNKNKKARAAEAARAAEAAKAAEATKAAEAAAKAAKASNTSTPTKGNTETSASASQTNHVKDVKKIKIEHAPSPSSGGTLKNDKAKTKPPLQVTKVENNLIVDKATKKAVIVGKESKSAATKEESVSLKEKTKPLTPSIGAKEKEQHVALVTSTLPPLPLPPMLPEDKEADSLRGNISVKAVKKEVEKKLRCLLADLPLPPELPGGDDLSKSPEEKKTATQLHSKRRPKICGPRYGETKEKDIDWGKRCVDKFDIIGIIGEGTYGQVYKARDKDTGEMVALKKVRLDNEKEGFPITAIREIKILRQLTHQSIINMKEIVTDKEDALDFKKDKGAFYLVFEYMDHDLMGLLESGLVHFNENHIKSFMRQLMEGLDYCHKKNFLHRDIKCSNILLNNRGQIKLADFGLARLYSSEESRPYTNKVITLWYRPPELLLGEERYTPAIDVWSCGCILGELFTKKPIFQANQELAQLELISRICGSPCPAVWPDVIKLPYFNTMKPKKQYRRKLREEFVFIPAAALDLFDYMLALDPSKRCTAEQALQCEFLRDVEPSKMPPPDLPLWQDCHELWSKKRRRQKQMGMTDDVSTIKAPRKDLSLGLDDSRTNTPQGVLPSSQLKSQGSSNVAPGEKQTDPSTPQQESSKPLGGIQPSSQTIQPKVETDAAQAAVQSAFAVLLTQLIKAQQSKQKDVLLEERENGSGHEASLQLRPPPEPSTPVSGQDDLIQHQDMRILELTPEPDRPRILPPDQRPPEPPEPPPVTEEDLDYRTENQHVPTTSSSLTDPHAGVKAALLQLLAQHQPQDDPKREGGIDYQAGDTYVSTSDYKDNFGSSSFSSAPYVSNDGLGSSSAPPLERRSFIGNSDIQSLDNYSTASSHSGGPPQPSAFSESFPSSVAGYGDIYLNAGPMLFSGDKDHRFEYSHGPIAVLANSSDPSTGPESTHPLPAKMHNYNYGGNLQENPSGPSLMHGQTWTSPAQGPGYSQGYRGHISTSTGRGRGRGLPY
# CDK8/Cyclin C = CDK8/Cyclin C (Homo sapiens, UniProt P49336); experiment: NanoBRET live-cell target engagement, NanoLuc-CDK8/Cyclin C in HEK-293; assay type: binding; conditions: read-out: CDK8/C Inhibition at 10µM (%), 10µM
# Sequence of CDK8/Cyclin C (P49336 whole entry): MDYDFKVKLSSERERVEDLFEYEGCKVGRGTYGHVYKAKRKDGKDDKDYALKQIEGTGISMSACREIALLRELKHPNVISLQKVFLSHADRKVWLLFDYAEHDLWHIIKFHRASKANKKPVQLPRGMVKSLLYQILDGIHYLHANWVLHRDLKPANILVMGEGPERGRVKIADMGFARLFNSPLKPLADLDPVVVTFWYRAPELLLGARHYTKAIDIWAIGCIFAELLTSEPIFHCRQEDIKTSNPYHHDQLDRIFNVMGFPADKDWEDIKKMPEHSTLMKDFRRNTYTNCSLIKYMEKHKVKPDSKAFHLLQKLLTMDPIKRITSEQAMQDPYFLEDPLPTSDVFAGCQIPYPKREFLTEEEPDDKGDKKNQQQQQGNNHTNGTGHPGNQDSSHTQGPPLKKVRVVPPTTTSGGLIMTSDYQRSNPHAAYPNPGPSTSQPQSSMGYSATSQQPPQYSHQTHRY
# Sequence of CDK8/Cyclin C (P24863 whole entry partner): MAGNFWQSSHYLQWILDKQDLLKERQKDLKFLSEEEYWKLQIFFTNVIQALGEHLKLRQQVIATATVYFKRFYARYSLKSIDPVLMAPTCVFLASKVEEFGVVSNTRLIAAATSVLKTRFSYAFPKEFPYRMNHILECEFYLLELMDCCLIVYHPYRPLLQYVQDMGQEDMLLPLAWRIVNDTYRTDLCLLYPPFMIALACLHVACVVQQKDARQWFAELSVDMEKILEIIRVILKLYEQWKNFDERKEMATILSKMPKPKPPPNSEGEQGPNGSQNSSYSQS
# CDK19/Cyclin C = CDK19/Cyclin C (Homo sapiens, UniProt Q9BWU1); experiment: NanoBRET live-cell target engagement, NanoLuc-CDK19/Cyclin C in HEK-293; conditions: read-out: CDK19/C Inhibition at 10µM (%), 10µM
# Sequence of CDK19/Cyclin C (Q9BWU1 whole entry): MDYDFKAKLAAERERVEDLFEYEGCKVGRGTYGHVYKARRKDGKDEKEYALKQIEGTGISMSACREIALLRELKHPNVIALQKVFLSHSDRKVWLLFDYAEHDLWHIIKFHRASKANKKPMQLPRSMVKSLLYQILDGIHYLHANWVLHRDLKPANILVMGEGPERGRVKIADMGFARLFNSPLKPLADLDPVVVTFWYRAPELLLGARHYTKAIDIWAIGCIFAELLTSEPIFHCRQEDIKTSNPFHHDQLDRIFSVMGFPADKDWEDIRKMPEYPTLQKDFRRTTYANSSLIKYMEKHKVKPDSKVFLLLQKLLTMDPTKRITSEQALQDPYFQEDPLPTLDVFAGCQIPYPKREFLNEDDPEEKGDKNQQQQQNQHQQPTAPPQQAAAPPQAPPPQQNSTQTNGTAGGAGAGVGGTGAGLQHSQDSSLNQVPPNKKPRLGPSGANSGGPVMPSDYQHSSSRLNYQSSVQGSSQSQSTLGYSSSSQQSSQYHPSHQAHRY
# Sequence of CDK19/Cyclin C (P24863 whole entry partner): as the sequence (P24863 whole entry partner) above
# CDK4/Cyclin D1 = CDK4/Cyclin D1 (Homo sapiens, UniProt P11802); experiment: NanoBRET live-cell target engagement, NanoLuc-CDK4/Cyclin D1 in HEK-293; assay type: binding; conditions: 10µM, read-out: CDK4/D1 Inhibition at 10µM (%)
# Sequence of CDK4/Cyclin D1 (P11802 whole entry): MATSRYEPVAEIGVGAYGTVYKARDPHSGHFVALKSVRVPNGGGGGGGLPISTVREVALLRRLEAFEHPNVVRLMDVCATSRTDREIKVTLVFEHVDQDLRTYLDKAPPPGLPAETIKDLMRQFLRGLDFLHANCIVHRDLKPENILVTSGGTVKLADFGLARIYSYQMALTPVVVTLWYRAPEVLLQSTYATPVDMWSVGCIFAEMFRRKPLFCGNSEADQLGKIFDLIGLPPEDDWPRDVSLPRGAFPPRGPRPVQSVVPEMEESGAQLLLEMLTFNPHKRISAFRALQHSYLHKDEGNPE
# Sequence of CDK4/Cyclin D1 (P24385 whole entry partner): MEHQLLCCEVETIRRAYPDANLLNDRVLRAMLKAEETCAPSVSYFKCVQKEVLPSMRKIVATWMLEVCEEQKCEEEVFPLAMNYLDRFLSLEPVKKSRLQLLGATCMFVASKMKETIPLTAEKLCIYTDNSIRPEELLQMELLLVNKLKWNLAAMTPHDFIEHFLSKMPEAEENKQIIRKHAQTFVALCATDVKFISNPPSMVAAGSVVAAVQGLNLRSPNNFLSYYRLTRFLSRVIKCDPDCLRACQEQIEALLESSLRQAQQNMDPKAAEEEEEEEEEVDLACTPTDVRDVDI
# CDK9/Cyclin K = CDK9/Cyclin K (Homo sapiens, UniProt P50750); experiment: NanoBRET live-cell target engagement, NanoLuc-CDK9/Cyclin K in HEK-293; assay type: binding
# CDK6/Cyclin D1 = CDK6/Cyclin D1 (Homo sapiens, UniProt Q00534); experiment: NanoBRET live-cell target engagement, NanoLuc-CDK6/Cyclin D1 in HEK-293; assay type: binding; conditions: read-out: CDK6/D1 Inhibition at 10µM (%), 10µM
# CDK7 = CDK7 (Homo sapiens, UniProt P50613); experiment: NanoBRET live-cell target engagement, NanoLuc-CDK7 in HEK-293; assay type: binding; conditions: read-out: CDK7 Inhibition at 10µM (%), 10µM
smiles,measurement,setting,value
CC[C@H](CO)Nc1nc(Nc2cccc(-c3ccccn3)c2)c2ncn(C(C)C)c2n1 [(R) - DRF053],IC50,"CDK2/Cyclin E1; n=3 average ± SEM, n=2 average to 2 significant figures, read-out: IC50 (nM) Average*",410 nM
same,IC50,CDK2/Cyclin E1; read-out: IC50 (nM) Replicate 1,370 nM
same,IC50,CDK2/Cyclin E1; read-out: IC50 (nM) Replicate 2,450 nM
CNC(=O)c1ccccc1Nc1nc(Nc2ccc(N3CCNCC3)cc2)ncc1Cl [CTx-0294885],IC50,CDK20/Cyclin H; CDK20 with probe 4 at 0.5 uM,1400 nM
same,IC50,CDK20/Cyclin H; CDK20 with probe 4 at 1 uM,1600 nM
same,IC50,CDK20/Cyclin H; CDK20 with probe 4 at […],1500 nM
same,CDK20 engagement at 10 µM,CDK20/Cyclin H; live HEK-293,> 50%
CC[C@H](CO)Nc1nc(NCc2ccccc2)c2ncn(C(C)C)c2n1 [Roscovitine],inhibition at 10 µM,CDK11A/Cyclin L2; average of experiments,2.5%
same,inhibition at 10 µM,CDK11A/Cyclin L2; independent experiment 2,-3.8%
same,inhibition at 10 µM,CDK12/Cyclin K; independent experiment 1,7.1%
same,inhibition at 10 µM,CDK12/Cyclin K; independent experiment 2,15.8%
same,inhibition at 10 µM,CDK10/Cyclin L2; average of experiments,9.7%
same,inhibition at 10 µM,CDK10/Cyclin L2; independent experiment 1,10.4%
same,inhibition at 10 µM,CDK10/Cyclin L2; independent experiment 2,9%
same,inhibition at 10 µM,CDK11B/Cyclin L2; average of experiments,7.8%
same,inhibition at 10 µM,CDK11B/Cyclin L2; independent experiment 1,11.9%
same,inhibition at 10 µM,CDK11B/Cyclin L2; independent experiment 2,3.7%
same,inhibition at 10 µM,CDK13/Cyclin K; average of experiments,4.6%
same,inhibition at 10 µM,CDK13/Cyclin K; independent experiment 1,9.6%
same,inhibition at 10 µM,CDK13/Cyclin K; independent experiment 2,-0.3%
same,inhibition at 10 µM,CDK8/Cyclin C; average of experiments,2.5%
same,inhibition at 10 µM,CDK8/Cyclin C; independent experiment 1,1.7%
same,inhibition at 10 µM,CDK8/Cyclin C; independent experiment 2,3.4%
same,inhibition at 10 µM,CDK19/Cyclin C; average of experiments,17%
same,inhibition at 10 µM,CDK19/Cyclin C; independent experiment 1,23.5%
same,inhibition at 10 µM,CDK19/Cyclin C; independent experiment 2,10.4%
same,inhibition at 10 µM,CDK20/Cyclin H; independent experiment 1,8.8%
same,inhibition at 10 µM,CDK20/Cyclin H; independent experiment 2,17.9%
same,inhibition at 10 µM,CDK4/Cyclin D1; average of experiments,-3.2%
same,inhibition at 10 µM,CDK4/Cyclin D1; independent experiment 1,29.6%
same,inhibition at 10 µM,CDK4/Cyclin D1; independent experiment 2,-35.9%
same,CDK9/K Inhibition at 10µM (%),CDK9/Cyclin K; 10 µM,52.2%
same,inhibition at 10 µM,CDK9/Cyclin K; read-out: CDK9/K Inhibition at 10µM (%),50.4%
same,inhibition at 10 µM,CDK6/Cyclin D1; independent experiment 1,19.8%
same,inhibition at 10 µM,CDK6/Cyclin D1; independent experiment 2,12.4%
same,inhibition at 10 µM,CDK7; independent experiment 1,52.6%
same,inhibition at 10 µM,CDK7; independent experiment 2,57.2%
